From PubChem BioAssay AID256 (DTP/NCI, 2004)
Where “and” joins values, the source holds several entries; their conditions need not be identical. Identical values can stand only once. Toxic doses and inconclusive results are not listed.

Tested on: CD2F1 mice, L1210 leukemia ip, survival T/C
Experiment: NCI In Vivo Anticancer Drug Screen. Data for tumor model L1210 Leukemia (intraperitoneal) in CD2F1 (CDF1) mice
Details: higher = longer survival
In short: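 Ratio T/C, where T is the treated-group value and C the vehicle-dosed control value, from mice implanted with a transplantable tumor.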

[1] = endpoint: mean survival time, dose: 100.0 mg/kg/injection, schedule: Q01DX001 (ip), vehicle: saline
[2] = endpoint: mean survival time, dose: 200.0 mg/kg/injection, schedule: Q01DX001 (ip), vehicle: saline
[3] = endpoint: mean survival time, dose: 400.0 mg/kg/injection, schedule: Q01DX001 (ip), vehicle: saline
[4] = endpoint: mean survival time, dose: 100.0 mg/kg/injection, schedule: Q04DX003 (ip), vehicle: saline with Tween-80
[5] = endpoint: mean survival time, dose: 200.0 mg/kg/injection, schedule: Q04DX003 (ip), vehicle: saline with Tween-80
[6] = endpoint: mean survival time, dose: 400.0 mg/kg/injection, schedule: Q04DX003 (ip), vehicle: saline with Tween-80
[7] = endpoint: mean survival time, dose: 200.0 mg/kg/injection, schedule: Q01DX009 (ip), vehicle: saline with Tween-80
[8] = endpoint: mean survival time, dose: 400.0 mg/kg/injection, schedule: Q01DX009 (ip), vehicle: saline with Tween-80
[9] = endpoint: mean survival time, dose: 100.0 mg/kg/injection, schedule: Q01DX009 (ip), vehicle: saline with Tween-80
[10] = endpoint: mean survival time, dose: 100.0 mg/kg/injection, schedule: Q04DX003 (ip), vehicle: saline
[11] = endpoint: mean survival time, dose: 200.0 mg/kg/injection, schedule: Q04DX003 (ip), vehicle: saline
[12] = endpoint: mean survival time, dose: 400.0 mg/kg/injection, schedule: Q04DX003 (ip), vehicle: saline
[13] = endpoint: mean survival time, dose: 50.0 mg/kg/injection, schedule: Q01DX009 (ip), vehicle: saline with Tween-80
[14] = endpoint: mean survival time, dose: 75.0 mg/kg/injection, schedule: Q01DX001 (ip), vehicle: saline
[15] = endpoint: mean survival time, dose: 100.0 mg/kg/injection, schedule: Q01DX001 (ip), vehicle: saline with Tween-80
[16] = endpoint: mean survival time, dose: 200.0 mg/kg/injection, schedule: Q01DX001 (ip), vehicle: saline with Tween-80
[17] = endpoint: mean survival time, dose: 400.0 mg/kg/injection, schedule: Q01DX001 (ip), vehicle: saline with Tween-80

CC(C)=CC(=O)OC1C2C(C)=CC(=O)C(O)C2(C)C2C3(O)OCC24C(CC(=O)OC14)C(C)C3O (stereo unspecified)
T/C (endpoint: mean survival time, dose: 0.25 mg/kg/injection, schedule: Q01DX009 (ip), vehicle: distilled water + Tween-80): 110 % of control | T/C (endpoint: mean survival time, dose: 0.5 mg/kg/injection, schedule: Q01DX009 (ip), vehicle: distilled water + Tween-80): 124 % of control | T/C (endpoint: mean survival time, dose: 1.0 mg/kg/injection, schedule: Q01DX009 (ip), vehicle: distilled water + Tween-80): 112 % of control | T/C (endpoint: mean survival time, dose: 2.0 mg/kg/injection, schedule: Q01DX009 (ip), vehicle: saline with Tween-80): 151 % of control | T/C (endpoint: median survival time, dose: 0.25 mg/kg/injection, schedule: Q01DX009 (ip), vehicle: distilled water + Tween-80 + alcohol): 122 % of control | T/C (endpoint: median survival time, dose: 0.5 mg/kg/injection, schedule: Q01DX009 (ip), vehicle: distilled water + Tween-80 + alcohol): 124 % of control | T/C (endpoint: median survival time, dose: 2.0 mg/kg/injection, schedule: Q01DX009 (ip), vehicle: distilled water + Tween-80 + alcohol): 153 % of control

CC(c1ccccc1C(=O)O)c1cc(F)cc2ccccc12 (stereo unspecified)
T/C (endpoint: median survival time, dose: 25.0 mg/kg/injection, schedule: Q04DX003 (ip), vehicle: saline with Tween-80): 111 % of control | T/C (endpoint: median survival time, dose: 50.0 mg/kg/injection, schedule: Q04DX003 (ip), vehicle: saline with Tween-80): 111 % of control | T/C (endpoint: median survival time, dose: 100.0 mg/kg/injection, schedule: Q04DX003 (ip), vehicle: saline with Tween-80): 88 % of control | T/C (endpoint: median survival time, dose: 200.0 mg/kg/injection, schedule: Q04DX003 (ip), vehicle: saline with Tween-80): 88 % of control

C1CC[N-]CC1.C1CC[N-]CC1.[Cl][Pd][Cl]
T/C (endpoint: mean survival time, dose: 25.0 mg/kg/injection, schedule: Q04DX002 (ip), vehicle: saline with Tween-80): 89 % of control | T/C (endpoint: mean survival time, dose: 50.0 mg/kg/injection, schedule: Q04DX002 (ip), vehicle: saline with Tween-80): 96 % of control

OC12CC3C4CC(O1)C1C4CC3C12 (stereo unspecified)
T/C [1]: 100 % of control | T/C [2]: 96 % of control | T/C [3]: 96 % of control

CCOC1([N+](=O)[O-])c2ccccc2-c2nc3ccccc3cc21 (stereo unspecified)
T/C (endpoint: mean survival time, dose: 200.0 mg/kg/injection, schedule: Q04DX003 (ip), vehicle: Klucel (hydroxypropylcellulose) (HPC)): 97 % of control

Cn1ncc2c(NCc3ccccc3)ncnc21
T/C (endpoint: mean survival time, dose: 18.0 mg/kg/injection, schedule: Q01DX009 (ip), vehicle: saline with Tween-80): 114 % of control | T/C (endpoint: mean survival time, dose: 37.5 mg/kg/injection, schedule: Q01DX009 (ip), vehicle: saline with Tween-80): 115 % of control

Cc1ccc(S(=O)(=O)NC(CSCc2ccccc2)C(=O)O)cc1 (stereo unspecified)
T/C [4]: 94 % of control | T/C [5]: 93 % of control | T/C [6]: 95 % of control

O=C(O)C(O)(c1ccccc1)C1CCCC1 (stereo unspecified)
T/C [7]: 109 % of control | T/C [8]: 112 % of control

O=C(O)C(O)C(O)C(=O)O (stereo unspecified)
T/C [1]: 103 % of control | T/C [9]: 102 % of control | T/C [4]: 97 % of control | T/C [10]: 110 % of control | T/C [2]: 106 % of control | T/C [7]: 102 % of control | T/C [5]: 92 % of control | T/C [11]: 98 % of control | T/C [3]: 110 % of control | T/C [6]: 97 % of control | T/C [12]: 101 % of control

N#Cc1cccc[n+]1Cc1ccc([N+](=O)[O-])cc1
T/C (endpoint: mean survival time, dose: 25.0 mg/kg/injection, schedule: Q01DX009 (ip), vehicle: saline with Tween-80): 108 % of control | T/C [13]: 101 % of control

CCOC(=O)C(C(=O)OCC)C1CCC2(C)CCC(=O)C=C2C1 (stereo unspecified)
T/C (endpoint: mean survival time, dose: 100.0 mg/kg/injection, schedule: Q04DX002 (ip), vehicle: saline with Tween-80): 100 % of control and 107 % of control and 108 % of control | T/C (endpoint: mean survival time, dose: 200.0 mg/kg/injection, schedule: Q04DX002 (ip), vehicle: saline with Tween-80): 100 % of control and 101 % of control and 104 % of control | T/C (endpoint: mean survival time, dose: 400.0 mg/kg/injection, schedule: Q04DX002 (ip), vehicle: saline with Tween-80): 98 % of control and 100 % of control | T/C (endpoint: mean survival time, dose: 600.0 mg/kg/injection, schedule: Q04DX002 (ip), vehicle: saline with Tween-80): 109 % of control

N#CCN(CC#N)CC#N
T/C (endpoint: mean survival time, dose: 1.56 mg/kg/injection, schedule: Q01DX009 (ip), vehicle: saline): 97 % of control | T/C (endpoint: mean survival time, dose: 3.13 mg/kg/injection, schedule: Q01DX009 (ip), vehicle: saline): 92 % of control | T/C (endpoint: mean survival time, dose: 6.25 mg/kg/injection, schedule: Q01DX009 (ip), vehicle: saline): 100 % of control

Cc1cccc(CNc2ccc(S(=O)(=O)c3ccc(NCc4cccc(C)n4)cc3)cc2)n1
T/C [10]: 97 % of control | T/C [11]: 112 % of control | T/C [12]: 93 % of control

CCC(=O)C(C)N(C)C1CCCCC1 (stereo unspecified)
T/C [10]: 100 % of control | T/C [11]: 102 % of control | T/C [12]: 96 % of control

O=C(CCCCCCC(=O)ON1C(=O)CCC1=O)ON1C(=O)CCC1=O
T/C (endpoint: median survival time, dose: 25.0 mg/kg/injection, schedule: Q01DX009 (ip), vehicle: saline with Tween-80): 102 % of control | T/C (endpoint: median survival time, dose: 50.0 mg/kg/injection, schedule: Q01DX009 (ip), vehicle: saline with Tween-80): 102 % of control | T/C (endpoint: median survival time, dose: 100.0 mg/kg/injection, schedule: Q01DX009 (ip), vehicle: saline with Tween-80): 103 % of control | T/C (endpoint: median survival time, dose: 200.0 mg/kg/injection, schedule: Q01DX009 (ip), vehicle: saline with Tween-80): 102 % of control

[Cl][Mo]([Cl])([Cl])[Cl].[Cl][Mo]([Cl])([Cl])[Cl]
T/C (endpoint: mean survival time, dose: 100.0 mg/kg/injection, schedule: Q04DX002 (ip), vehicle: saline): 112 % of control | T/C (endpoint: mean survival time, dose: 200.0 mg/kg/injection, schedule: Q04DX002 (ip), vehicle: saline): 87 % of control | T/C (endpoint: mean survival time, dose: 400.0 mg/kg/injection, schedule: Q04DX002 (ip), vehicle: saline): 108 % of control

CCOc1cc(NCCCN)c2nc(OCc3ccccc3)ccc2c1
T/C [14]: 96 % of control

CC(O)(C(=O)O)c1ccccc1 (stereo unspecified)
T/C [14]: 102 % of control | T/C (endpoint: mean survival time, dose: 150.0 mg/kg/injection, schedule: Q01DX001 (ip), vehicle: saline): 112 % of control | T/C (endpoint: mean survival time, dose: 300.0 mg/kg/injection, schedule: Q01DX001 (ip), vehicle: saline): 100 % of control

ON=C1c2c(ccc3ccccc23)-c2ccc3ccccc3c21
T/C [15]: 95 % of control | T/C [9]: 98 % of control | T/C [16]: 96 % of control | T/C [7]: 95 % of control | T/C [17]: 102 % of control | T/C [8]: 93 % of control

CCC(C)(O)C(C)N(C)c1ccccc1 (stereo unspecified)
T/C [10]: 102 % of control and 97 % of control | T/C [11]: 102 % of control and 100 % of control | T/C [12]: 102 % of control and 106 % of control

CC(C)(CC(=O)O)CC(=O)O.[NH-]C1CCCCC1[NH-].[Pt+2]
T/C (endpoint: median survival time, dose: 3.12 mg/kg/injection, schedule: Q04DX003 (ip), vehicle: saline): 87 % of control | T/C (endpoint: median survival time, dose: 6.25 mg/kg/injection, schedule: Q04DX003 (ip), vehicle: saline): 102 % of control | T/C (endpoint: median survival time, dose: 12.5 mg/kg/injection, schedule: Q04DX003 (ip), vehicle: saline): 98 % of control | T/C (endpoint: median survival time, dose: 25.0 mg/kg/injection, schedule: Q04DX003 (ip), vehicle: saline): 108 % of control | T/C (endpoint: median survival time, dose: 50.0 mg/kg/injection, schedule: Q04DX003 (ip), vehicle: saline): 101 % of control | T/C (endpoint: median survival time, dose: 100.0 mg/kg/injection, schedule: Q04DX003 (ip), vehicle: saline): 103 % of control | T/C (endpoint: median survival time, dose: 200.0 mg/kg/injection, schedule: Q04DX003 (ip), vehicle: saline): 112 % of control

O=C(Nc1c(Cl)cccc1Cl)OCCOc1ccc(Br)cc1
T/C [13]: 100 % of control | T/C [9]: 103 % of control | T/C [7]: 107 % of control

c1ccc2c(c1)oc1c3ccccc3c3ccccc3c21
T/C (endpoint: median survival time, dose: 25.0 mg/kg/injection, schedule: Q04DX002 (ip), vehicle: saline with Tween-80): 110 % of control | T/C (endpoint: median survival time, dose: 50.0 mg/kg/injection, schedule: Q04DX002 (ip), vehicle: saline with Tween-80): 90 % of control | T/C (endpoint: median survival time, dose: 100.0 mg/kg/injection, schedule: Q04DX002 (ip), vehicle: saline with Tween-80): 110 % of control | T/C (endpoint: median survival time, dose: 200.0 mg/kg/injection, schedule: Q04DX002 (ip), vehicle: saline with Tween-80): 110 % of control

COc1ccc(C2=NNc3n[nH]c(=S)n3N2)cc1OC
T/C [9]: 93 % of control | T/C [4]: 91 % of control | T/C [7]: 93 % of control | T/C [5]: 101 % of control | T/C [8]: 104 % of control | T/C [6]: 90 % of control

C=C(C)COc1cc(C=NCCCC)c(C)cc1C
T/C [9]: 98 % of control | T/C [7]: 94 % of control | T/C [8]: 96 % of control

O=c1cc(-c2ccccc2)[nH]c(-c2ccccc2)c1
T/C [15]: 100 % of control | T/C [9]: 89 % of control | T/C [4]: 89 % of control | T/C [16]: 88 % of control | T/C [7]: 88 % of control | T/C [5]: 93 % of control | T/C [17]: 89 % of control | T/C [6]: 86 % of control
